Patent US9149038B2, “4-amino-6-(heterocyclic)picolinates and 6-amino-2-(heterocyclic)pyrimidine-4-carboxylates and their use as herbicides” (Dow AgroSciences LLC, priority 2013, dated 2015)
Like-named read-outs stand apart in the source and are kept apart here.

Legend:
[1] = test system: Key Broadleaf Weed and Crop Species; experiment: Post-Emergent Test II: postemergent herbicidal activity, visual rating after 14 d (Table 7); type: in vivo; conditions: post-emergence, 336 h; for pest or weed control at 35 g/ha: 35 g ai/ha; for pest or weed control at 70 g/ha: 70 g ai/ha; for pest or weed control at 140 g/ha: 140 g ai/ha
Summary of the method: (§1)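 Visual scoring at 14 d, 0 (no injury) to 100 (complete kill), relative to untreated plants. Postemergent overhead track-sprayer application, 187 L/ha, at a top rate plus serial ½×–1/16× rates, to plants grown 7–21 d at about 23–29° C day under a 15 h photoperiod, then subirrigated.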

[2] = test system: Key Grass and Sedge Weeds as well as Grass Crops; experiment: Post-Emergent Test II: postemergent herbicidal activity, visual rating after 14 d (Table 8); type: in vivo; conditions: post-emergence, 336 h; for pest or weed control at 35 g/ha: 35 g ai/ha; for pest or weed control at 70 g/ha: 70 g ai/ha; for pest or weed control at 140 g/ha: 140 g ai/ha
Summary of the method: as §1

[3] = ABUTH: velvetleaf (Abutilon theophrasti), read-out: Visual Growth Reduction (%) 14 Days After Application ABUTH
[4] = AMARE: redroot pigweed (Amaranthus retroflexus), read-out: Visual Growth Reduction (%) 14 Days After Application AMARE
[5] = BRSNN: oilseed rape, canola (Brassica napus), read-out: Visual Growth Reduction (%) 14 Days After Application BRSNN
[6] = CHEAL: lambsquarters (Chenopodium album), read-out: Visual Growth Reduction (%) 14 Days After Application CHEAL
[7] = EPHHL: wild poinsettia (Euphorbia heterophylla), read-out: Visual Growth Reduction (%) 14 Days After Application EPHHL
[8] = HELAN: sunflower (Helianthus annuus), read-out: Visual Growth Reduction (%) 14 Days After Application HELAN
[9] = barnyardgrass (Echinochloa crus-galli), read-out: Visual Growth Reduction (%) 14 Days After Application, ECHCG
[10] = giant foxtail (Setaria faberi), read-out: Visual Growth Reduction (%) 14 Days After Application, SETFA
[11] = maize, corn (Zea mays), read-out: Visual Growth Reduction (%) 14 Days After Application, ZEAMX
[12] = rice (Oryza sativa), read-out: Visual Growth Reduction (%) 14 Days After Application, ORYSA
[13] = wheat, spring (Triticum aestivum), read-out: Visual Growth Reduction (%) 14 Days After Application, TRZAS
[14] = yellow nutsedge (Cyperus esculentus), read-out: Visual Growth Reduction (%) 14 Days After Application, CYPES

COC(=O)c1nc(-c2ccc(Cl)c3c2OC(F)(F)O3)cc(N)c1Cl [Compound 86]
pest or weed control at 35 g/ha [1, 3]: 75 to 84% | pest or weed control at 70 g/ha [1, 3]: 85 to 94% | pest or weed control at 140 g/ha [1, 3]: 85 to 94% | pest or weed control at 35 g/ha [1, 4]: 95 to 100% | pest or weed control at 70 g/ha [1, 4]: 95 to 100% | pest or weed control at 140 g/ha [1, 4]: 95 to 100% | pest or weed control at 35 g/ha [1, 5]: 75 to 84% | pest or weed control at 70 g/ha [1, 5]: 75 to 84% | pest or weed control at 140 g/ha [1, 5]: 85 to 94% | pest or weed control at 35 g/ha [1, 6]: 95 to 100% | pest or weed control at 70 g/ha [1, 6]: 95 to 100% | pest or weed control at 140 g/ha [1, 6]: 95 to 100% | pest or weed control at 35 g/ha [1, 7]: 0 to 29% | pest or weed control at 70 g/ha [1, 7]: 0 to 29% | pest or weed control at 140 g/ha [1, 7]: 0 to 29% | pest or weed control at 35 g/ha [1, 8]: 75 to 84% | pest or weed control at 70 g/ha [1, 8]: 85 to 94% | pest or weed control at 140 g/ha [1, 8]: 85 to 94% | pest or weed control at 35 g/ha [2, 9]: 0 to 29% | pest or weed control at 70 g/ha [2, 9]: 0 to 29% | pest or weed control at 140 g/ha [2, 9]: 0 to 29% | pest or weed control at 35 g/ha [2, 10]: 0 to 29% | pest or weed control at 70 g/ha [2, 10]: 0 to 29% | pest or weed control at 140 g/ha [2, 10]: 0 to 29% | pest or weed control at 35 g/ha [2, 11]: 85 to 94% | pest or weed control at 70 g/ha [2, 11]: 85 to 94% | pest or weed control at 140 g/ha [2, 11]: 95 to 100% | pest or weed control at 35 g/ha [2, 12]: 0 to 29% | pest or weed control at 70 g/ha [2, 12]: 0 to 29% | pest or weed control at 140 g/ha [2, 12]: 0 to 29% | pest or weed control at 35 g/ha [2, 13]: 0 to 29% | pest or weed control at 70 g/ha [2, 13]: 0 to 29% | pest or weed control at 140 g/ha [2, 13]: 0 to 29% | pest or weed control at 35 g/ha [2, 14]: 60 to 74% | pest or weed control at 70 g/ha [2, 14]: 60 to 74% | pest or weed control at 140 g/ha [2, 14]: 60 to 74%
